In patent US20260193170A1 (University of Copenhagen, priority 2022, published 2026):

Target: T1, human Keap1 Kelch domain (Homo sapiens, UniProt Q14145)
T1 construct: human Keap1 Kelch domain (residue 321-609, UniProt Q14145); made in house; host or cells: Escherichia coli BL21 (DE3) pLysS, pRSET A vector
Test: Fluorescence polarization (FP) competition assay, Cy5-Nrf2 peptide probe
Assay type: binding
Conditions: heterologous competition FP; Keap1 Kelch 14 nM, Cy5-Nrf2 probe 3 nM, 4% DMSO; mean ± SEM
Protocol: The binding affinities between the fluorescent peptide probe Cy5-Nrf2 (SEQ: Cy5-[…]-NH2) and the human Keap1 Kelch domain were determined as Kd values by saturation binding experiments, where increasing concentrations of Keap1 (0-300 nM) were added to a fixed concentration of peptide probe (3 nM). The assay was performed in a 1× HBSTET buffer (10 mM HEPES, 150 mM NaCl, 0.005% Tween20, 3 mM ethylenediaminetetraacetic acid (EDTA), 1 mM TCEP, pH=7.4) using black flat-bottom 384-well plates (Corning Life Sciences, NY), a volume of 30 μL/well, and a final DMSO concentration of 4% or 8%. The assay plate was spun down to ascertain proper mixing and removal of potential air bubbles and incubated for 10-15 min at room temperature before measuring the FP levels on a Safire2 plate reader (Tecan, Mannedorf, Switzerland). The g-factor was adjusted at each experiment so that a series of three blank wells containing probe but no Keap1 Kelch defined the baseline FP value. The Cy5-Nrf2 probe was measured at excitation/emission values of 635:670 nm. The FP values were fitted to the one-site specific binding equation: Y=Bmax×X/(Kd+X), with Bmax being the maximal FP value, X the Keap1 Kelch concentration, and Y the variable FP values. The Kd values were derived from the resulting binding saturation curve as being equal to the Keap1 Kelch concentration, where the curve is half-saturated.
The affinities between nonfluorescent small molecule Keap1 inhibitors and Keap1 Kelch were determined as Ki values in a heterologous competition FP binding assay. This was done by adding increasing concentration of test compound (2-fold serial dilutions, 12 concentrations tested per inhibition curve as duplicates) to a fixed concentration of Keap1 Kelch (14 nM) and the Cy5-Nrf2 peptide probe (3 nM) in the same HBSTET buffer and conditions as described above (final DMSO concentrations were 4%). FP values were fitted to the equation Y=Bottom+(Top−Bottom)/[1+(10^HillSlope×(log IC50−X))], where X is the logarithmic value of compound concentration. Hereby, the IC50 value was obtained, which together with the […] value and probe and Keap1 Kelch concentrations was used to calculate the theoretical competitive inhibition constant, the Ki value. 43 Ki values are shown as mean±SEM (standard error of mean) if based on two or more individual measurements.

T1 sequence (Q14145 321-609): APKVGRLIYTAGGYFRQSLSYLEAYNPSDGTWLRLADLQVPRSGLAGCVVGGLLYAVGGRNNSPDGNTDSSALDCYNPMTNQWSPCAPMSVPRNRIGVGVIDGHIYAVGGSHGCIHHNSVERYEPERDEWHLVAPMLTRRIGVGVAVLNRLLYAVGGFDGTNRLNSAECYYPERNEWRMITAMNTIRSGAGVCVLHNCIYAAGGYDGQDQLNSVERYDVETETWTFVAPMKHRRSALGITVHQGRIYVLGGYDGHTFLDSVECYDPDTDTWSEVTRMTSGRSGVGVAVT

Ki [µM]	Compound
14 ± 0.8	O=C(O)CCc1ccc2ccc(OCC(=O)NC3CCCCC3)cc2c1 [1a, 3-(7-(2-(Cyclohexylamino)-2-oxoethoxy)naphthalen-2-yl)propanoic acid]
38 ± 3	O=C(O)CCc1ccc2ccc(OCC(=O)NC3CCOCC3)cc2c1 [1b, 3-(7-(2-Oxo-2-((tetrahydro-2H-pyran-4-yl)amino)ethoxy)naphthalen-2-yl)propanoic acid]
268 ± 29	O=C(O)CCc1ccc2ccc(OCC(=O)NN3CCOCC3)cc2c1 [1c, 3-(7-(2-Morpholinoamino-2-oxoethoxy)naphthalen-2-yl)propanoic acid]
6 ± 0.3	O=C(O)CCc1ccc2ccc(OCC(=O)NC3CCCCCC3)cc2c1 [1d, 3-(7-(2-(Cycloheptylamino)-2-oxoethoxy)naphthalen-2-yl)propanoic acid]
75 ± 10	COc1ccc(NC(=O)COc2ccc3ccc(CCC(=O)O)cc3c2)cc1 [1e, 3-(7-(2-((4-Methoxyphenyl)amino)-2-oxoethoxy)naphthalen-2-yl)propanoic acid]
22 ± 0.8	Cc1cc(C)c(NC(=O)COc2ccc3ccc(CCC(=O)O)cc3c2)c(C)c1 [1f, 3-(7-(2-(Mesitylamino)-2-oxoethoxy)naphthalen-2-yl)propanoic acid]
196 ± 24	Cc1cc(C)c(C)c(NC(=O)COc2ccc3ccc(CCC(=O)O)cc3c2)c1C [1g, 3-(7-(2-Oxo-2-((2,3,5,6-tetramethylphenyl)amino)ethoxy)naphthalen-2-yl)propanoic acid]
7.8 ± 0.1	O=C(O)CCc1ccc2ccc(OCC(=O)Nc3ccccc3)cc2c1 [1h, 3-(7-(2-oxo-2-(phenylamino)ethoxy)naphthalen-2-yl)propanoic acid]
1.1 ± 0.1	O=C(O)CC(c1ccccc1)c1ccc2ccc(OCC(=O)NC3CCCCCC3)cc2c1 (stereo not drawn) [2a, 3-(7-(2-(Cycloheptylamino)-2-oxoethoxy)naphthalen-2-yl)-3-phenylpropanoic acid]
0.181 ± 0.02	O=C(O)CC(c1ccc(O)cc1)c1ccc2ccc(OCC(=O)NC3CCCCCC3)cc2c1 (stereo not drawn) [2b, 3-(7-(2-(Cycloheptylamino)-2-oxoethoxy)naphthalen-2-yl)-3-(4-hydroxyphenyl)propanoic acid]
0.294 ± 0.03	O=C(O)CC(c1ccc(Cl)cc1)c1ccc2ccc(OCC(=O)NC3CCCCCC3)cc2c1 (stereo not drawn) [2c, 3-(4-Chlorophenyl)-3-(7-(2-(cycloheptylamino)-2-oxoethoxy)naphthalen-2-yl)propanoic acid]
0.032 ± 0.03	COc1ccc(C(CC(=O)O)c2ccc3ccc(OCC(=O)NC4CCCCCC4)cc3c2)cc1 (stereo not drawn) [2d, 3-(7-(2-(Cycloheptylamino)-2-oxoethoxy)naphthalen-2-yl)-3-(4-methoxyphenyl)propanoic acid]
0.041 ± 0.005	CCOc1ccc(C(CC(=O)O)c2ccc3ccc(OCC(=O)NC4CCCCCC4)cc3c2)cc1 (stereo not drawn) [2e, 3-(7-(2-(Cycloheptylamino)-2-oxoethoxy)naphthalen-2-yl)-3-(4-ethoxyphenyl)propanoic acid]
0.101 ± 0.005	CC(C)Oc1ccc(C(CC(=O)O)c2ccc3ccc(OCC(=O)NC4CCCCCC4)cc3c2)cc1 (stereo not drawn) [2f, 3-(7-(2-(Cycloheptylamino)-2-oxoethoxy)naphthalen-2-yl)-3-(4-isopropoxyphenyl)propanoic acid]
0.203 ± 0.03	O=C(O)CC(c1cccc(O)c1)c1ccc2ccc(OCC(=O)NC3CCCCCC3)cc2c1 (stereo not drawn) [2g, 3-(7-(2-(Cycloheptylamino)-2-oxoethoxy)naphthalen-2-yl)-3-(3-hydroxyphenyl)propanoic acid]
0.284 ± 0.03	COc1cccc(C(CC(=O)O)c2ccc3ccc(OCC(=O)NC4CCCCCC4)cc3c2)c1 (stereo not drawn) [2h, 3-(7-(2-(Cycloheptylamino)-2-oxoethoxy)naphthalen-2-yl)-3-(3-methoxyphenyl)propanoic acid]
0.054 ± 0.006	O=C(O)CC(c1cccc(Cl)c1)c1ccc2ccc(OCC(=O)NC3CCCCCC3)cc2c1 (stereo not drawn) [2i, 3-(3-Chlorophenyl)-3-(7-(2-(cycloheptylamino)-2-oxoethoxy)naphthalen-2-yl)propanoic acid]

Ki [µM]	Compound
0.61 ± 0.06	COc1ccc(C(CC(=O)O)c2ccc3ccc(OCC(=O)NC4CCCCCC4)cc3c2)cc1C (stereo not drawn) [2j, 3-(7-(2-(Cycloheptylamino)-2-oxoethoxy)naphthalen-2-yl)-3-(4-methoxy-3-methylphenyl)propanoic acid]
0.027 ± 0.003	COc1ccc(C(CC(=O)O)c2ccc3ccc(OCC(=O)NC4CCCCCC4)cc3c2)c(C)c1 (stereo not drawn) [2k, 3-(7-(2-(Cycloheptylamino)-2-oxoethoxy)naphthalen-2-yl)-3-(4-methoxy-2-methylphenyl)propanoic acid]
0.06 ± 0.008	Cc1c(Cl)cccc1C(CC(=O)O)c1ccc2ccc(OCC(=O)NC3CCCCCC3)cc2c1 (stereo not drawn) [2l, 3-(3-chloro-2-methylphenyl)-3-(7-(2-(cycloheptylamino)-2-oxoethoxy)naphthalen-2-yl)propanoic acid]
0.023 ± 0.002	O=C(O)CC(c1ccc2c(c1)OCO2)c1ccc2ccc(OCC(=O)NC3CCCCCC3)cc2c1 (stereo not drawn) [2m, 3-(benzo[d][1,3]dioxol-5-yl)-3-(7-(2-(cycloheptylamino)-2-oxoethoxy)naphthalen-2-yl)propanoic acid]
0.008 ± 0.002	Cc1cc2c(cc1C(CC(=O)O)c1ccc3ccc(OCC(=O)NC4CCCCCC4)cc3c1)OCO2 (stereo not drawn) [2n, 3-(7-(2-(cycloheptylamino)-2-oxoethoxy)naphthalen-2-yl)-3-(6-methylbenzo[d][1,3]dioxol-5-yl)propanoic acid]
0.0035 ± 0.0006	COc1cc(C(CC(=O)O)c2ccc3ccc(OCC(=O)NC4CCCCCC4)cc3c2)cc2nnn(C)c12 (stereo not drawn) [2o, 3-(7-(2-(cycloheptylamino)-2-oxoethoxy)naphthalen-2-yl)-3-(7-methoxy-1-methyl-1H-benzo[d][1,2,3]triazol-5-yl)propanoic acid]
0.0059 ± 0.0007	CCn1nnc2c(C)c(C(CC(=O)O)c3ccc4ccc(OCC(=O)NC5CCCCCC5)cc4c3)ccc21 (stereo not drawn) [2p, 3-(7-(2-(cycloheptylamino)-2-oxoethoxy)naphthalen-2-yl)-3-(1-ethyl-4-methyl-1H-benzo[d][1,2,3]triazol-5-yl)propanoic acid]
0.036 ± 0.003	O=C(O)CC(c1ccc2c(c1)CCO2)c1ccc2ccc(OCC(=O)NC3CCCCCC3)cc2c1 (stereo not drawn) [2q, 3-(7-(2-(cycloheptylamino)-2-oxoethoxy)naphthalen-2-yl)-3-(2,3-dihydrobenzofuran-5-yl)propanoic acid]
0.034 ± 0.005	O=C(O)CC(c1ccc2c(c1)OC(F)(F)O2)c1ccc2ccc(OCC(=O)NC3CCCCCC3)cc2c1 (stereo not drawn) [2r, 3-(7-(2-(cycloheptylamino)-2-oxoethoxy)naphthalen-2-yl)-3-(2,2-difluorobenzo[d][1,3]dioxol-5-yl)propanoic acid]
0.015 ± 0.003	O=C(O)CC(c1ccc2c(c1)OCCO2)c1ccc2ccc(OCC(=O)NC3CCCCCC3)cc2c1 (stereo not drawn) [2s, 3-(7-(2-(cycloheptylamino)-2-oxoethoxy)naphthalen-2-yl)-3-(2,3-dihydrobenzo[b][1,4]dioxin-6-yl)propanoic acid]
0.038 ± 0.002	O=C(O)CC(c1ccc2ccc(OCC(=O)NC3CCCCCC3)cc2c1)c1ccc2occc2c1 (stereo not drawn) [2t, 3-(Benzofuran-5-yl)-3-(7-(2-(cycloheptylamino)-2-oxoethoxy)naphthalen-2-yl)propanoic acid]
0.009 ± 0.003	Cc1cc2c(cc1C(CC(=O)O)c1ccc3ccc(OCC(=O)NC4CCCCCC4)cc3c1)OCCO2 (stereo not drawn) [2u, 3-(7-(2-(Cycloheptylamino)-2-oxoethoxy)naphthalen-2-yl)-3-(7-methyl-2,3-dihydrobenzo[b][1,4]dioxin-6-yl)propanoic acid]
0.097 ± 0.013	Cc1ccc(Cl)cc1C(CC(=O)O)c1ccc2ccc(OCC(=O)NC3CCCCCC3)cc2c1 (stereo not drawn) [2v, 3-(5-chloro-2-methylphenyl)-3-(7-(2-(cycloheptylamino)-2-oxoethoxy)naphthalen-2-yl)propanoic acid]
0.014 ± 0.002	Cc1cc2c(cc1C(CC(=O)O)c1ccc3ccc(OCC(=O)NC4CCCCCC4)cc3c1)OC(F)(F)O2 (stereo not drawn) [2w, 3-(7-(2-(cycloheptylamino)-2-oxoethoxy)naphthalen-2-yl)-3-(2,2-difluoro-6-methylbenzo[d][1,3]dioxol-5-yl)propanoic acid]
0.009 ± 0.002	O=C(O)CC(c1ccc2ccc(OCC(=O)NC3CCCCCC3)cc2c1)c1cc2c(cc1Cl)OCO2 (stereo not drawn) [2z, 3-(6-chlorobenzo[d][1,3]dioxol-5-yl)-3-(7-(2-(cycloheptylamino)-2-oxoethoxy)naphthalen-2-yl)propanoic acid]
0.07 ± 0.003	COc1ccc(C(CC(=O)O)c2ccc3ccc(OCC(=O)NC4CCCCC4)cc3c2)cc1 (stereo not drawn) [3a, 3-(7-(2-(cyclohexylamino)-2-oxoethoxy)naphthalen-2-yl)-3-(4-methoxyphenyl)propanoic acid]
